Results: PubChem BioAssay AID1918991 (Molecular Pharmacology Branch, DTP, NCI, 2023)

Test system: 186277-243-T-J2-PDC complex spheroid growth
Test: Anticancer human tumor 186277-243-T-J2-PDC patient-derived colon adenocarcinoma cell line growth inhibition [AhR]
Conditions: for IC50: curve of first compound; for viability, T/C: stronger effect = lower value
Method in brief: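 Agents were dosed in half-log steps down from roughly clinical Cmax, or from 10 microM where Cmax was unknown, alone and with AhR antagonists. Read-out: percent test/control growth of tumor spheroids containing HUVEC and MSC stromal cells.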
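Note: spheroids exposed to compounds for seven days before the viability read.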
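Throughout, for viability, T/C: luminescent signal used as a stand-in for viable cell amount; 100% = DMSO vehicle control wells.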

**Q.** With CC(C)c1c(-c2ccccc2)nc2c(C#N)c[nH]n2c1=O + Cc1cncc(-c2nc(NCCc3c[nH]c4ccccc34)c3ncn(C(C)C)c3n2)c1 as the compound, how does the IC50 (second compound 0.1 µM) read?
**A.** The IC50 was over 10 µM.

**Q.** And the IC50 (second compound 0.316 µM)?
**A.** Its IC50 is over 10 µM.

**Q.** And the IC50 (second compound 1 µM)?
**A.** The IC50 was over 10 µM.

**Q.** What about the IC50 (second compound 3.16 µM) of the same compound?
**A.** The IC50 was over 10 µM.

**Q.** And the IC50 (second compound 10 µM)?
**A.** The IC50 was under 0.0316 µM.

**Q.** What about the viability, T/C (second compound 0.1 µM, first compound 0.0316 µM) of the same compound?
**A.** The viability, T/C was 127%.

**Q.** And the viability, T/C (second compound 0.1 µM, first compound 0.1 µM)?
**A.** The viability, T/C was 105%.

**Q.** And the viability, T/C (second compound 0.1 µM, first compound 0.316 µM)?
**A.** Its viability, T/C is 101%.

**Q.** What about the viability, T/C (second compound 0.1 µM, first compound 1 µM) of the same compound?
**A.** The viability, T/C was 98.3%.

**Q.** What about the viability, T/C (second compound 0.1 µM, first compound 3.16 µM) of the same compound?
**A.** Its viability, T/C is 95.8%.

**Q.** What about the viability, T/C (second compound 0.1 µM, first compound 10 µM) of the same compound?
**A.** Its viability, T/C is 96.5%.

**Q.** And the viability, T/C (second compound 0.316 µM, first compound 0.0316 µM)?
**A.** Its viability, T/C is 102%.

**Q.** What about the viability, T/C (second compound 0.316 µM, first compound 0.1 µM) of the same compound?
**A.** Its viability, T/C is 99.6%.

**Q.** What about the viability, T/C (second compound 0.316 µM, first compound 0.316 µM) of the same compound?
**A.** The viability, T/C was 101%.

**Q.** What about the viability, T/C (second compound 0.316 µM, first compound 1 µM) of the same compound?
**A.** Its viability, T/C is 98.8%.

**Q.** What about the viability, T/C (second compound 0.316 µM, first compound 3.16 µM) of the same compound?
**A.** The viability, T/C was 95%.

**Q.** And the viability, T/C (second compound 0.316 µM, first compound 10 µM)?
**A.** Its viability, T/C is 108%.

**Q.** And the viability, T/C (second compound 1 µM, first compound 0.0316 µM)?
**A.** Its viability, T/C is 107%.

**Q.** And the viability, T/C (second compound 1 µM, first compound 0.1 µM)?
**A.** The viability, T/C was 101%.

**Q.** And the viability, T/C (second compound 1 µM, first compound 0.316 µM)?
**A.** The viability, T/C was 98.5%.

**Q.** And the viability, T/C (second compound 1 µM, first compound 1 µM)?
**A.** The viability, T/C was 103%.

**Q.** What about the viability, T/C (second compound 1 µM, first compound 3.16 µM) of the same compound?
**A.** The viability, T/C was 94.4%.

**Q.** What about the viability, T/C (second compound 1 µM, first compound 10 µM) of the same compound?
**A.** Its viability, T/C is 102%.

**Q.** And the viability, T/C (second compound 3.16 µM, first compound 0.0316 µM)?
**A.** Its viability, T/C is 109%.

**Q.** And the viability, T/C (second compound 3.16 µM, first compound 0.1 µM)?
**A.** Its viability, T/C is 111%.

**Q.** And the viability, T/C (second compound 3.16 µM, first compound 0.316 µM)?
**A.** Its viability, T/C is 96.3%.

**Q.** And the viability, T/C (second compound 3.16 µM, first compound 1 µM)?
**A.** The viability, T/C was 96.1%.

**Q.** And the viability, T/C (second compound 3.16 µM, first compound 3.16 µM)?
**A.** The viability, T/C was 108%.

**Q.** And the viability, T/C (second compound 3.16 µM, first compound 10 µM)?
**A.** The viability, T/C was 102%.

**Q.** And the viability, T/C (second compound 10 µM, first compound 0.0316 µM)?
**A.** The viability, T/C was 26%.

**Q.** And the viability, T/C (second compound 10 µM, first compound 0.1 µM)?
**A.** Its viability, T/C is 22.7%.

**Q.** What about the viability, T/C (second compound 10 µM, first compound 0.316 µM) of the same compound?
**A.** The viability, T/C was 20.5%.

**Q.** What about the viability, T/C (second compound 10 µM, first compound 1 µM) of the same compound?
**A.** Its viability, T/C is 25.6%.

**Q.** And the viability, T/C (second compound 10 µM, first compound 3.16 µM)?
**A.** Its viability, T/C is 23.9%.

**Q.** What about the viability, T/C (second compound 10 µM, first compound 10 µM) of the same compound?
**A.** Its viability, T/C is 34.4%.
